Consider eight compounds from PubChem BioAssay (NCI).

Where “and” joins values, the source holds several entries; their conditions need not be identical. Equal entries are not always repeated.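 These data come from cells grown in 96-well plates and exposed to compound for 48 hours at five concentrations. Abbreviation: GI50, concentration required for 50% inhibition of growth. TGI marks complete inhibition of growth.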

Some test systems named below: 786-0 renal; HCT-116 colon; HOP-92 NSCLC; NCI-H460 lung; OVCAR-3 ovarian; SK-OV-3 ovarian; SR leukemia; T-47D breast; TK-10 renal; U251 CNS.
What all share (assay): growth of human tumour cells (NCI), 48 h

With `COc1cc(/C=C2\SC(N3CCCCC3)=NC2=O)ccc1OCCCCCCOc1ccc(/C=C2\SC(N3CCCCC3)=NC2=O)cc1OC`, the GI50 in the assay with 786-0 renal was 7.71 µM; in the assay with HCT-116 colon, 12.6 µM; with HOP-92 NSCLC, 2.47 µM; in the assay on NCI-H460 lung, 6.84 µM; in the assay with OVCAR-3 ovarian, 6.04 µM; in the assay on SK-OV-3 ovarian it was 4.91 µM. The GI50 was 9.16 µM in the assay with SR leukemia, 8.9 µM with T-47D breast, 11.5 µM with TK-10 renal and 4.61 µM in the assay on U251 CNS. Also, the TGI in the assay with 786-0 renal worked out at 27.8 µM; in the assay on HCT-116 colon, 31.2 µM; with HOP-92 NSCLC, 8.95 µM; in the assay on NCI-H460 lung, 23.8 µM; in the assay on OVCAR-3 ovarian, 18.7 µM; in the assay with SK-OV-3 ovarian, 17.4 µM. Further, the TGI in the assay on SR leukemia stood at 65.8 µM; in the assay with T-47D breast it was 44.5 µM; in the assay on TK-10 renal it was 27.9 µM; in the assay with U251 CNS it was 16.1 µM.

Consider `CCOC(=O)[C@@H]1CSC(CC)=C(C(=O)O)N1`, for which the GI50 in the assay with 786-0 renal, in the assay with HCT-116 colon, in the assay on HOP-92 NSCLC, in the assay on NCI-H460 lung, with OVCAR-3 ovarian and with SK-OV-3 ovarian was over 100 µM each time. Besides, the GI50 in the assay on SR leukemia, in the assay on T-47D breast, in the assay on TK-10 renal and in the assay on U251 CNS was over 100 µM throughout. Further, the TGI in the assay on 786-0 renal, with HCT-116 colon, in the assay with HOP-92 NSCLC, in the assay on NCI-H460 lung, in the assay with OVCAR-3 ovarian and in the assay on SK-OV-3 ovarian was over 100 µM throughout. In addition, the TGI in the assay with SR leukemia, in the assay with T-47D breast, in the assay with TK-10 renal and with U251 CNS was over 100 µM each time.

Turning to `CC1(C)C2CCC13C(=O)C1OC3(C2)C2C(=O)c3c(ccc4c3ccc3ccccc34)C(=O)C12` (configuration not stated), the GI50 with 786-0 renal was over 36.3 µM; with HCT-116 colon, over 36.9 µM; in the assay on HOP-92 NSCLC, over 100 µM; with NCI-H460 lung it was 57.3 µM; with OVCAR-3 ovarian it was 40.7 µM; with SK-OV-3 ovarian, over 100 µM. In addition, the GI50 was 1.86 µM with SR leukemia, 48 µM with T-47D breast, over 87.5 µM in the assay on TK-10 renal and over 64.8 µM in the assay on U251 CNS. Further, the TGI in the assay with 786-0 renal was over 70.3 µM; in the assay with HCT-116 colon, over 57 µM; in the assay with HOP-92 NSCLC it was over 100 µM; with NCI-H460 lung, over 100 µM; in the assay with OVCAR-3 ovarian it was over 100 µM; in the assay on SK-OV-3 ovarian, over 100 µM. The TGI with SR leukemia was 51 µM; in the assay on T-47D breast it was over 100 µM; in the assay on TK-10 renal, over 100 µM; with U251 CNS, over 100 µM.

On to `Cn1c(=O)c2c(nc(N/N=C/c3ccccc3C(=O)O)n2C)n(C)c1=O`, for which the TGI in the assay with 786-0 renal, with HCT-116 colon, with HOP-92 NSCLC, in the assay with NCI-H460 lung, in the assay on OVCAR-3 ovarian and in the assay with SK-OV-3 ovarian was over 100 µM each time. Besides, the TGI with SR leukemia, in the assay on T-47D breast, in the assay on TK-10 renal and with U251 CNS was over 100 µM in each case.

As for `CC1(C)N=C(N)N=C(N)N1c1cccc(CCc2ccccc2)c1`, the GI50 in the assay with 786-0 renal is 0.799 µM; with HCT-116 colon it was 0.208 µM; in the assay with HOP-92 NSCLC, 2.65 µM; with NCI-H460 lung, 0.257 µM; in the assay on OVCAR-3 ovarian, 0.44 µM; in the assay with SK-OV-3 ovarian, 5.5 µM. Moreover, the GI50 in the assay with SR leukemia is 0.282 µM; in the assay with T-47D breast it was 2.95 µM; in the assay on TK-10 renal, 1.9 µM; in the assay with U251 CNS, 0.113 µM. Also, the TGI with 786-0 renal is over 100 µM; in the assay on HCT-116 colon it was over 100 µM; with HOP-92 NSCLC, 34.4 µM; in the assay on NCI-H460 lung, over 39.3 µM; with OVCAR-3 ovarian, 24.9 µM; with SK-OV-3 ovarian, over 100 µM. Moreover, the TGI was over 64.3 µM with SR leukemia, over 100 µM in the assay on T-47D breast, over 100 µM in the assay with TK-10 renal and over 100 µM in the assay with U251 CNS.

`COc1cc2c3cc1Oc1c(OC)c(OC)cc4c1C(Cc1ccc(O)c(c1)Oc1ccc(cc1)CC3N(C)CC2)N(C)CC4` (configuration not stated): the TGI was > 100 µM and 33.3 µM in the assay on 786-0 renal; > 100 µM and 49.5 µM in the assay on HCT-116 colon; 94.2 µM and 41.1 µM in the assay on HOP-92 NSCLC; 32.4 µM and 38.8 µM with NCI-H460 lung; 39.1 µM in the assay with OVCAR-3 ovarian; 91.2 µM and > 100 µM in the assay on SK-OV-3 ovarian. In addition, the TGI in the assay with SR leukemia was 21 µM; in the assay with T-47D breast it was 75.7 µM and 36.2 µM; in the assay on TK-10 renal it was > 100 µM and 39.3 µM; in the assay with U251 CNS, 69.4 µM and 28.9 µM. Besides, the GI50 in the assay with HCT-116 colon is 5.56 µM; in the assay with HOP-92 NSCLC, 17.2 µM; in the assay on SK-OV-3 ovarian, 36.9 µM; in the assay on SR leukemia, 3.32 µM; in the assay with T-47D breast, 15 µM; with TK-10 renal, 20.8 µM. The GI50 in the assay on U251 CNS is 11.5 µM.

As to `NC1=NCN(C2OC(CO)C(O)C2O)C(=O)N1` (configuration not stated), the TGI came out at 2050 µM with 786-0 renal; 143 µM with HCT-116 colon; 1990 µM in the assay with HOP-92 NSCLC; 294 µM with NCI-H460 lung; 361 µM in the assay on OVCAR-3 ovarian; 943 µM in the assay on SK-OV-3 ovarian. Further, the TGI in the assay on SR leukemia was found to be 278 µM; with T-47D breast it was 759 µM; with TK-10 renal, 1730 µM; with U251 CNS it was 2410 µM.

Consider `CC(=O)Oc1cc2cnc3c4cc(OC(C)=O)c(OC(C)=O)cc4ccc3c2cc1OC(C)=O`, for which the GI50 in the assay with 786-0 renal was 2.99 µM; with HCT-116 colon, 0.471 µM; with HOP-92 NSCLC, 0.538 µM; with NCI-H460 lung it was 0.569 µM; in the assay on OVCAR-3 ovarian it was 1.01 µM; in the assay with SK-OV-3 ovarian, 4.32 µM. For the same compound, the GI50 in the assay with SR leukemia is 0.629 µM; in the assay with T-47D breast, 0.898 µM; in the assay with TK-10 renal, 2.78 µM; with U251 CNS, 0.548 µM. For the same compound, the TGI is 16.3 µM in the assay on 786-0 renal; 3.86 µM with HCT-116 colon; 37.9 µM in the assay on HOP-92 NSCLC; over 100 µM with NCI-H460 lung; 9.5 µM with OVCAR-3 ovarian; over 100 µM with SK-OV-3 ovarian. The TGI was over 100 µM with SR leukemia, over 100 µM with T-47D breast, over 100 µM in the assay with TK-10 renal and 10.6 µM in the assay with U251 CNS.
